ChEMBL document CHEMBL3734705, “Synthesis and in vitro cytotoxicity of novel C-12 substituted-14-deoxy-andrographolide derivatives as potent anti-cancer agents” (2015)

Assays:
ACHN = experiment: Cytotoxicity against human ACHN cells assessed as growth level at 10 uM after 48 hrs by SRB assay; type: functional
[1] = Cytotoxicity against human DU145 cells assessed as growth level at 10 uM after 48 hrs by SRB assay; type: functional, DU-145
[2] = Cytotoxicity against human HCT116 cells assessed as growth level at 10 uM after 48 hrs by SRB assay; type: functional, HCT-116
NCI-H522 = experiment: Cytotoxicity against human NCI-H522 cells assessed as growth level at 10 uM after 48 hrs by SRB assay; type: functional
[3] = Cytotoxicity against human OVCAR3 cells assessed as growth level at 10 uM after 48 hrs by SRB assay; type: functional, OVCAR-3
[4] = Cytotoxicity against human COLO205 cells assessed as growth level at 10 uM after 48 hrs by SRB assay; type: functional, COLO 205
U-251 = experiment: Cytotoxicity against human U251 cells assessed as growth level at 10 uM after 48 hrs by SRB assay; type: functional
M14 = experiment: Cytotoxicity against human M14 cells assessed as growth level at 10 uM after 48 hrs by SRB assay; type: functional
[5] = Cytotoxicity against human SF295 cells assessed as growth level at 10 uM after 48 hrs by SRB assay; type: functional, SF-295
[6] = Cytotoxicity against human HOP92 cells assessed as growth level at 10 uM after 48 hrs by SRB assay; type: functional, HOP-92
[7] = Cytotoxicity against human HCC2998 cells assessed as growth level at 10 uM after 48 hrs by SRB assay; type: functional, HCC 2998
MDA-MB-435 = experiment: Cytotoxicity against human MDA-MB-435 cells assessed as growth level at 10 uM after 48 hrs by SRB assay; type: functional
[8] = Cytotoxicity against human SNB75 cells assessed as growth level at 10 uM after 48 hrs by SRB assay; type: functional, SNB-75
[9] = Cytotoxicity against human LOXIMVI cells assessed as growth level at 10 uM after 48 hrs by SRB assay; type: functional, LOX IMVI
786-0 = experiment: Cytotoxicity against human 786-0 cells assessed as growth level at 10 uM after 48 hrs by SRB assay; type: functional
NCI-H23 = experiment: Cytotoxicity against human NCI-H23 cells assessed as growth level at 10 uM after 48 hrs by SRB assay; type: functional
HT-29 = experiment: Cytotoxicity against human HT-29 cells assessed as growth level at 10 uM after 48 hrs by SRB assay; type: functional
[10] = Cytotoxicity against human Hs578T cells assessed as growth level at 10 uM after 48 hrs by SRB assay; type: functional, Hs-578T
[11] = Cytotoxicity against human OVCAR4 cells assessed as growth level at 10 uM after 48 hrs by SRB assay; type: functional, OVCAR-4
[12] = Cytotoxicity against human Caki1 cells assessed as growth level at 10 uM after 48 hrs by SRB assay; type: functional, CAKI-1
[13] = Cytotoxicity against human IGROV1 cells assessed as growth level at 10 uM after 48 hrs by SRB assay; type: functional, IGROV-1
SR = experiment: Cytotoxicity against human SR cells assessed as growth level at 10 uM after 48 hrs by SRB assay; type: functional
[14] = Cytotoxicity against human PC3 cells assessed as growth level at 10 uM after 48 hrs by SRB assay; type: functional, PC-3

**Q.** Which Activity (ACHN) does the source give for C=C1CC[C@@H]2[C@](C)(COC(C)=O)[C@H](OC(C)=O)CC[C@@]2(C)[C@@H]1CC(Sc1ccccc1)C1=CCOC1=O (mixture of isomers) here?
**A.** -13.74%

**Q.** What about the Activity [1] of the same compound?
**A.** 16.39%

**Q.** And the Activity [2]?
**A.** -34.58%

**Q.** What about the Activity (NCI-H522) of the same compound?
**A.** -80.61%

**Q.** And the Activity [3]?
**A.** -84.17%

**Q.** And the Activity [4]?
**A.** -68.06%

**Q.** What about the Activity (U-251) of the same compound?
**A.** 22.94%

**Q.** And the Activity (M14)?
**A.** -4.19%

**Q.** What about the Activity [5] of the same compound?
**A.** 65.88%

**Q.** And the Activity [6]?
**A.** 24.5%

**Q.** And the Activity [7]?
**A.** 44.69%

**Q.** What about the Activity (MDA-MB-435) of the same compound?
**A.** 101.38%

**Q.** And the Activity [8]?
**A.** 86.98%

**Q.** What about the Activity [9] of the same compound?
**A.** -83.89%

**Q.** And the Activity (786-0)?
**A.** -31.19%

**Q.** What about the Activity (NCI-H23) of the same compound?
**A.** 24.46%

**Q.** And the Activity (HT-29)?
**A.** -39.29%

**Q.** What about the Activity [10] of the same compound?
**A.** 54.23%

**Q.** And the Activity [11]?
**A.** 100.23%

**Q.** What about the Activity [12] of the same compound?
**A.** 90.6%

**Q.** And the Activity [13]?
**A.** 25.2%

**Q.** What about the Activity (SR) of the same compound?
**A.** 2.9%

**Q.** What about the Activity [14] of the same compound?
**A.** 36.43%
